Columns and labels:
Format in all cases: cell-based
SIRT2 = SIRT2 transcription, semi-quantitative RT-PCR in human epidermal progenitors; settings: 72 h
In short: (§1)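 Human neonatal keratinocyte progenitors exposed 72 h to decapeptides, 10–300 μM. Semi-quantitative RT-PCR; densitometry normalized to 18S.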

SIRT1 = SIRT1 transcription, semi-quantitative RT-PCR in human epidermal progenitors; settings: 72 h
In short: as §1

[1] = Trypan blue cell viability, 7 days, melanoblasts; settings: human, relative to control, read-out: melanoblast viability after 7 days
Experimental: (§2) The effect of each of the decapeptides upon cell viability was also tested. In particular, cells were incubated with the decapeptide at various concentrations and then counted for viability relative to the control (untreated cells) using trypan blue. Cytotoxicity was measured according to the following formula:
(§3) [1−(# of cells in control−# of live cells in test sample)/# of cells in control]×100 percent.

SIRT4 = SIRT4 transcription, semi-quantitative RT-PCR in human epidermal progenitors; settings: 72 h
SIRT5 = SIRT5 transcription, semi-quantitative RT-PCR in human epidermal progenitors; settings: 72 h
In short: as §1

SIRT7 = SIRT7 transcription, semi-quantitative RT-PCR in human epidermal progenitors; settings: 72 h
In short: as §1

in vitro = settings: human, human epidermal progenitors
In short: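 Epidermal progenitors were seeded at 2.5×10^4/well and kept at 37 °C in 5% CO2. Proliferation was measured by MTT.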

[2] = Trypan blue cell viability, 7 days, fibroblasts; settings: human, relative to control, read-out: fibroblast viability after 7 days
Experimental: as §2, §3

SIRT6 = SIRT6 transcription, semi-quantitative RT-PCR in human epidermal progenitors; settings: 72 h
In short: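 Following a 72 hour treatment, cells were trypsinized and RNA isolated with an RNeasy kit. cDNA was made from 2 μg RNA using oligo dT and TaqMan reagents, then SIRT6 and 18S were amplified for 34 cycles. Products ran on 1.5 percent agarose gels with ethidium bromide; densitometry gave SIRT6/18S intensity ratios compared against vehicle-treated controls.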

In the case of “Ac-YRSRKYSSWY-NH2 [P4C, Acetyl-YRSRKYSSWY-amide]”, the “SIRT2 transcription increase relative to control” value (SIRT2; 10 μM) is reported as 5.00%, the “SIRT2 transcription increase relative to control” value (SIRT2; 30 μM) is reported as 2 ± 1% and the “SIRT2 transcription increase relative to control” value (SIRT2; 50 μM) is reported as 1.00%. For the same substance, the “SIRT2 transcription increase relative to control” value (SIRT2; 100 μM) was 42 ± 1%, the “SIRT2 transcription increase relative to control” value (SIRT2; 300 μM) was 31 ± 9% and the “SIRT1 transcription increase relative to control” value (SIRT1; 10 μM) was 7 ± 3%. The “SIRT1 transcription increase relative to control” value (SIRT1; 30 μM) was 5.00%, the “SIRT1 transcription increase relative to control” value (SIRT1; 50 μM) was 1.00% and the “SIRT1 transcription increase relative to control” value (SIRT1; 100 μM) was 137 ± 8%. The “SIRT1 transcription increase relative to control” value (SIRT1; 300 μM) was 190 ± 9%, the viability at 168 h, 3 µM ([1]; 3 μM) was 100% and the viability at 168 h, 10 µM ([1]; 10 μM) was 99 ± 1%. For the same substance, the viability at 168 h, 30 µM ([1]; 30 μM) was 98.4 ± 1%, the viability at 168 h, 50 µM ([1]; 50 μM) was 97.9 ± 1% and the viability at 168 h, 100 µM ([1]; 100 μM) was 97 ± 2%. For the same substance, the viability at 168 h, 300 µM ([1]; 300 μM) was 96 ± 3%, the viability at 168 h, 500 µM ([1]; 500 μM) was 95.5 ± 3% and the viability at 168 h, 1000 µM ([1]; 1000 μM) was 94.8 ± 3%. The “SIRT4 transcription increase relative to control” value (SIRT4; 10 μM) was 3 ± 1%, the “SIRT4 transcription increase relative to control” value (SIRT4; 30 μM) was 3 ± 1% and the “SIRT4 transcription increase relative to control” value (SIRT4; 50 μM) was 11 ± 6%. The “SIRT4 transcription increase relative to control” value (SIRT4; 100 μM) was 32 ± 9%, the “SIRT4 transcription increase relative to control” value (SIRT4; 300 μM) was 67 ± 9% and the “SIRT5 transcription increase relative to control” value (SIRT5; 10 μM) was 4 ± 1%. For the same substance, the “SIRT5 transcription increase relative to control” value (SIRT5; 30 μM) was 2 ± 1%, the “SIRT5 transcription increase relative to control” value (SIRT5; 50 μM) was 3 ± 1% and the “SIRT5 transcription increase relative to control” value (SIRT5; 100 μM) was 35 ± 2%. The “SIRT5 transcription increase relative to control” value (SIRT5; 300 μM) was 28 ± 9%, the “SIRT7 transcription increase relative to control” value (SIRT7; 10 μM) was 14 ± 5% and the “SIRT7 transcription increase relative to control” value (SIRT7; 30 μM) was 7 ± 2%. The “SIRT7 transcription increase relative to control” value (SIRT7; 50 μM) was 46 ± 5%, the “SIRT7 transcription increase relative to control” value (SIRT7; 100 μM) was 80 ± 11% and the “SIRT7 transcription increase relative to control” value (SIRT7; 300 μM) was 130 ± 9%. For the same substance, the viability at 72 h, 3 µM (in vitro) was 99 ± 1%, the viability at 72 h, 10 µM (in vitro) was 99 ± 1% and the viability at 72 h, 30 µM (in vitro) was 98 ± 1%. It also gave a viability at 72 h, 50 µM (in vitro) of 98 ± 1%, a viability at 72 h, 100 µM (in vitro) of 97 ± 1% and a viability at 72 h, 300 µM (in vitro) of 97 ± 1%. For the same substance, the viability at 72 h, 500 µM (in vitro) was 96 ± 2%, the viability at 72 h, 1000 µM (in vitro) was 96 ± 2% and the viability at 168 h, 3 µM ([2]; 3 μM) was 100%. It also gave a viability at 168 h, 10 µM ([2]; 10 μM) of 98.9 ± 1%, a viability at 168 h, 30 µM ([2]; 30 μM) of 98.3 ± 1% and a viability at 168 h, 50 µM ([2]; 50 μM) of 97.8 ± 1%. For the same substance, the viability at 168 h, 100 µM ([2]; 100 μM) was 97.4 ± 2%, the viability at 168 h, 300 µM ([2]; 300 μM) was 96.5 ± 2% and the viability at 168 h, 500 µM ([2]; 500 μM) was 95.7 ± 2%. The viability at 168 h, 1000 µM ([2]; 1000 μM) was 94.9 ± 3%, the “SIRT6 transcription increase relative to control” value (SIRT6; 10 μM) was 12 ± 3% and the “SIRT6 transcription increase relative to control” value (SIRT6; 30 μM) was 9 ± 4%. For the same substance, the “SIRT6 transcription increase relative to control” value (SIRT6; 50 μM) was 31 ± 5%, the “SIRT6 transcription increase relative to control” value (SIRT6; 100 μM) was 124 ± 7% and the “SIRT6 transcription increase relative to control” value (SIRT6; 300 μM) was 87 ± 3%.

Reference: patent US20180296456A1, “Decapeptide-12 Modulation of Sirtuin Gene Expression in Epidermal Keratinocyte Progenitors” (Escape Therapeutics, Inc., priority 2017, published 2018)
